Source: patent publication EP2208725A1, “Novel specific inhibitors of ubiquitin specific protease 7, the pharmaceutical compositions thereof and their therapeutic applications” (Hybrigenics S.A., priority 2009, dated 2010)

Legend:
Caspase 3 = target: T1, Caspase 3 (Homo sapiens, UniProt P42574); assay: Caspase 3 activity assay (Ac-DEVD-AMC); type: biochemical; settings: 250 nM Ac-DEVD-AMC, 1.6 nM enzyme; compounds tested from 200 µM to 91 nM; unit inferred; read-out: Inhibition of cysteine protease activities: Casp3
T1 sequence (P42574 29-175 limits assumed): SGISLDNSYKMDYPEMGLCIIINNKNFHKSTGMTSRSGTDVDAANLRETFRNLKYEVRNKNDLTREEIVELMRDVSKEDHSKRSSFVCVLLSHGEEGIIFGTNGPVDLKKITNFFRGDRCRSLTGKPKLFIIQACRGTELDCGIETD
T1 sequence (P42574 176-277 limits assumed): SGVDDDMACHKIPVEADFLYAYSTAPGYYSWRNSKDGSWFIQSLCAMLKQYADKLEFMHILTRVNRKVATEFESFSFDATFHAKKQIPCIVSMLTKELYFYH
Description: Caspase 3 was diluted in Caspase 3 buffer (100 mM Hepes pH 7.5; 10% sucrose; 0.1% CHAPS). Compounds stocks (100 mM) were stored at -20°C in DMSO. Compounds were tested at different concentrations: from 200 µM to 91 nM. Reactions were performed as duplicates in Black LJL 96 well plates (HE microplates; Molecular Devices; 20 µl final reaction volume). The substrate concentration for caspase 3 specificity assay was 250 nM (Ac-DEVD-AMC; Promega). The concentration of the enzyme (Caspase 3) in specificity assays was 1.6 nM. The concentrations were determined in order to perform specificity assays under initial velocities at fixed substrate concentration. Compounds were pre-incubated with enzymes for 30 minutes at 25°C. Reactions were initiated by addition of substrate to the plates containing the enzymes (+/- compounds) diluted in assay buffer. Reactions were incubated for 60 minutes at 37°C. Reactions were stopped by adding acetic acid (100 mM final). Readings were performed on a Pherastar Fluorescent Reader (BMG). λ Emission 380 nm; λ Excitation = 460 nm. Data (mean values +/- standard deviation) were analyzed as % of control (no compound) and plotted as percentage versus the Log of the compound concentration using GraphPad (Prism). Data were fitted to a sigmoidal model (variable slope).

UCH-L3 = target: T2, UCH-L3 (Homo sapiens, UniProt P15374); assay: UCH-L3 activity assay (Ub-AMC); type: biochemical; settings: 400 nM Ub-AMC, 13 pM enzyme; compounds tested from 200 µM to 91 nM; unit inferred; read-out: Inhibition of cysteine protease activities: Uch-L3
T2 sequence (P15374 1-230): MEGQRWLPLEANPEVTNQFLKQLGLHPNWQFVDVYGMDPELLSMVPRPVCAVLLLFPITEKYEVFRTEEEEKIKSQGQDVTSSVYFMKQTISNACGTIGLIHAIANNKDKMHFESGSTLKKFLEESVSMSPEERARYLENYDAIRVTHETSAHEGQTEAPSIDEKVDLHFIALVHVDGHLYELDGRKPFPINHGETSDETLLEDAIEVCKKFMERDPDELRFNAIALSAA
Description: UCH-L3 was diluted in USP buffer (50 mM Tris HCl; 0.5 mM EDTA; 5 mM DTT; 0.01% Triton X-100; Bovine Serum Albumin 0.05 mg.ml^-1 pH7.6). Compounds stocks (100 mM) were stored at -20°C in DMSO. Compounds were tested at different concentrations: from 200 µM to 91 nM. Reactions were performed as duplicates in Black LJL 96 well plates (HE microplates; Molecular Devices; 20 µl final reaction volume). The substrate concentration for UCH-L3 was 400 nM Ub-AMC (Boston Biochem). The concentration of the enzyme (UCH-L3) in specificity assays was 13 pM. The concentrations were determined in order to perform specificity assays under initial velocities at fixed substrate concentration. Compounds were pre-incubated with enzymes for 30 minutes at 25°C. Reactions were initiated by addition of substrate to the plates containing the enzymes (+/- compounds) diluted in assay buffer. Reactions were incubated for 60 minutes at 37°C. Reactions were stopped by adding acetic acid (100 mM final). Readings were performed on a Pherastar Fluorescent Reader (BMG). λ Emission 380 nm; λ Excitation = 460 nm. Data (mean values +/- standard deviation) were analyzed as % of control (no compound) and plotted as percentage versus the Log of the compound concentration using GraphPad (Prism). Data were fitted to a sigmoidal model (variable slope).

IC50 (Caspase 3)	IC50 (UCH-L3)	SMILES
> 200 µM	> 200 µM	CC(=O)C1=C(O)C(=O)N(CCc2ccc(Cl)cc2Cl)C1c1ccc(Br)cc1 (centres unmarked) [Example 47, 4-Acetyl-5-(4-bromophenyl)-1-[2-(2,4-dichlorophenyl)-ethyl]-3-hydroxy-1,5-dihydro-pyrrol-2-one]
> 200 µM	> 200 µM	CC(=O)C1=C(O)C(=O)N(CCc2ccc(Cl)c(Cl)c2)C1c1ccc(Br)cc1 (centres unmarked) [Example 28, 4-acetyl-5-(4-bromo-phenyl)-1-[2-(3,4-dichloro-phenyl)-ethyl]-3-hydroxy-1,5-dihydro-pyrrol-2-one]
> 200 µM	> 200 µM	COc1cccc(CCN2C(=O)C(O)=C(C(C)=O)C2c2ccc(Br)cc2)c1 (centres unmarked) [Example 30, 4-acetyl-5-(4-bromo-phenyl)-3-hydroxy-1-[2-(3-methoxyphenyl)-ethyl]-1,5-dihydro-pyrrol-2-one]
> 200 µM	> 200 µM	CC(=O)C1=C(O)C(=O)N(CCc2ccc(F)cc2)C1c1ccc(Br)cc1 (centres unmarked) [Example 33, 4-acetyl-5-(4-bromo-phenyl)-3-hydroxy-1-[2-(4-fluorophenyl)-ethyl]-1,5-dihydro-pyrrol-2-one]
> 200 µM	> 200 µM	CC(=O)C1=C(O)C(=O)N(CCc2ccc(Br)cc2)C1c1ccc(Br)cc1 (centres unmarked) [Example 26, 4-acetyl-5-(4-bromo-phenyl)-1-[2-(4-bromo-phenyl)-ethyl]-3-hydroxy-1,5-dihydro-pyrrol-2-one]
> 200 µM	> 200 µM	CC(=O)C1=C(O)C(=O)N(CCc2ccccc2)C1c1ccc2c(c1)OCO2 (centres unmarked) [Example 37, 4-acetyl-5-benzo[1,3]dioxol-5-yl-3-hydroxy-1-phenethyl-1,5-dihydro-pyrrol-2-one]
> 200 µM	> 200 µM	CC(=O)C1=C(O)C(=O)N(CCc2ccc(Cl)cc2)C1c1ccc(Br)cc1 (centres unmarked) [Example 25, 4-acetyl-5-(4-bromo-phenyl)-1-[2-(4-chloro-phenyl)-ethyl]-3-hydroxy-1,5-dihydro-pyrrol-2-one]
> 200 µM	> 200 µM	CC(=O)C1=C(O)C(=O)N(CCc2ccc(Br)cc2)C1c1ccc(Cl)cc1 (centres unmarked) [Example 45, 4-Acetyl-5-(4-chlorophenyl)-1-[2-(4-bromophenyl)-ethyl]-3-hydroxy-1,5-dihydro-pyrrol-2-one]
> 200 µM	> 200 µM	CC(=O)C1=C(O)C(=O)N(CCc2ccc(Cl)cc2)C1c1ccc(Cl)cc1 (centres unmarked) [Example 46, 4-Acetyl-5-(4-chlorophenyl)-1-[2-(4-chlorophenyl)-ethyl]-3-hydroxy-1,5-dihydro-pyrrol-2-one]
> 200 µM	> 200 µM	CCOc1ccc(CCN2C(=O)C(O)=C(C(C)=O)C2c2ccc(Br)cc2)cc1 (centres unmarked) [Example 34, 4-acetyl-5-(4-bromo-phenyl)-3-hydroxy-1-[2-(4-ethoxy-phenyl)-ethyl]-1,5-dihydro-pyrrol-2-one]
> 200 µM	> 200 µM	COc1ccc(CCN2C(=O)C(O)=C(C(C)=O)C2c2ccc(Br)cc2)cc1 (centres unmarked) [Example 32, 4-acetyl-5-(4-bromo-phenyl)-3-hydroxy-1-[2-(4-methoxyphenyl)-ethyl]-1,5-dihydro-pyrrol-2-one]
> 200 µM	> 200 µM	CC(=O)C1=C(O)C(=O)N(CCc2ccccc2)C1c1cccnc1Cl (centres unmarked) [Example 42, 4-acetyl-5-(2-chloro-pyridin-3-yl)-3-hydroxy-1-phenethyl-1,5-dihydro-pyrrol-2-one]
> 200 µM	> 200 µM	CC(=O)C1=C(O)C(=O)N(CCc2ccccc2)C1c1ccc(Br)c(Br)c1 (centres unmarked) [Example 41, 4-acetyl-5-(3,4-dibromo-phenyl)-3-hydroxy-1-phenethyl-1,5-dihydro-pyrrol-2-one]
